24 compounds from patent US9624209B2, “Substituted phenylureas and phenylamides as vanilloid receptor ligands” (Gruenenthal GmbH, priority 2009, dated 2017) can be followed below.

The target in the experiment is T1, vanilloid receptor 1 (VR1/TRPV1 receptor) (Homo sapiens, UniProt Q8NER1).
T1 construct: expressed in transfected cells; host or cells: CHO K1 cells (ECACC), stably transfected
Description: VR1/TRPV1 receptor affinity, capsaicin stimulus (human). In kind it is cell-based, human being. Further details: key to (f) Ki (human being) [nM] Cap: result in words: AG=agonist; pAG=partial agonist; NE=no effect. Particulars: for Ki: Tables 8-12, read-out: (f) Ki (human being) [nM] Cap; for (f) Ki (human being) [nM] Cap: result in words: Tables 8-12.

T1 sequence (Q8NER1 whole entry): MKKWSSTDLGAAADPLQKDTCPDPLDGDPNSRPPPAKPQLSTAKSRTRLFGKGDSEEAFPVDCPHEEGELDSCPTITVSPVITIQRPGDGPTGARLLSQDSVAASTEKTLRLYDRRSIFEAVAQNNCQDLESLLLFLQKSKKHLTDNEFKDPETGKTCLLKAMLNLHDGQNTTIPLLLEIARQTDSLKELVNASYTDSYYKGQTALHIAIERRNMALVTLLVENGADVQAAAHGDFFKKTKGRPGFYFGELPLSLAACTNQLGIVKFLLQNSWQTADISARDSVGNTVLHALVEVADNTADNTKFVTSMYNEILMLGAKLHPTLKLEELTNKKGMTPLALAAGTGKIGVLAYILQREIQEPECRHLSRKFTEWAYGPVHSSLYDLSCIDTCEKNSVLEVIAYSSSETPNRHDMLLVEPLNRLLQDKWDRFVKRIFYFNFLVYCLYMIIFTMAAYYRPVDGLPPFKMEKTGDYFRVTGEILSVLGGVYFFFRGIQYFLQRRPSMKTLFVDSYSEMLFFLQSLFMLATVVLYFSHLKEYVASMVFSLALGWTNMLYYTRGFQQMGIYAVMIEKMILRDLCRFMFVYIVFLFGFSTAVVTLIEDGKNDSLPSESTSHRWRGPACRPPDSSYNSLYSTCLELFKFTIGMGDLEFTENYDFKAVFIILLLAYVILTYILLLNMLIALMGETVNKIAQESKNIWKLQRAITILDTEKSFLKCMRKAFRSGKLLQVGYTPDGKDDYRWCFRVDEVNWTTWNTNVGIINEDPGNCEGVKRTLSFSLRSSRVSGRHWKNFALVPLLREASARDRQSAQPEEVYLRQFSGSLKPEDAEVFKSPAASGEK

In the case of “4-[[[2-(3-Chlorophenyl)-5-(trifluoromethyl)-2H-pyrazol-3-yl]-methyl-carbamoyl]-methyl]-N-[4-(trifluoromethyl)-phenyl]-benzamide [Example E51]”, the Ki worked out at 49 nM.

Turning to `CC(C(=O)NCc1cc(C(C)(C)C)nn1-c1ccc(F)cc1)c1ccc(CNS(C)(=O)=O)c(F)c1` (stereo not drawn) [Example B21, N-[[5-tert-Butyl-2-(4-fluorophenyl)-2H-pyrazol-3-yl]-methyl]-2-[3-fluoro-4-(methanesulfonamido-methyl)-phenyl]-propionamide], the Ki is 30 nM.

In the case of “4-[1-[[2-(3-Chlorophenyl)-5-(trifluoromethyl)-2H-pyrazol-3-yl]-methyl-carbamoyl]-ethyl]-2-fluoro-N-thiazol-2-yl-benzamide [Example E52]”, the Ki was 59 nM.

Take `CCS(=O)(=O)NCc1ccc(C(C)C(=O)NCc2cc(C(C)(C)C)nn2-c2cccc(Cl)c2)cc1F` (stereo not drawn) [Example B16, N-[[5-tert-Butyl-2-(3-chlorophenyl)-2H-pyrazol-3-yl]-methyl]-2-[4-[[(ethylsulfonyl)amino]-methyl]-3-fluoro-phenyl]-propionamide]: the Ki stood at 2 nM.

As to `CCC(=O)c1ccc(C(C)C(=O)NCc2cc(C(F)(F)F)nn2-c2ccc(F)c(F)c2)cc1F` (stereo not drawn) [Example E3, N-[[2-(3,4-Difluoro-phenyl)-5-(trifluoromethyl)-2H-pyrazol-3-yl]-methyl]-2-(3-fluoro-4-propanoyl-phenyl)-propionamide], the Ki is 62 nM.

With `NS(=O)(=O)NCc1ccc(NC(=O)NCc2cc(C(F)(F)F)nn2-c2cccc(Cl)c2)cc1` [Example B35, 1-[[2-(3-Chlorophenyl)-5-(trifluoromethyl)-2H-pyrazol-3-yl]-methyl]-3-[4-[(sulfamoylamino)-methyl]-phenyl]-urea], the Ki worked out at 9 nM.

Take `COc1cc(NC(=O)NCc2cc(C(F)(F)F)nn2-c2cccc(Cl)c2)ccc1O` [Example A15, 1-[[2-(3-Chlorophenyl)-5-(trifluoromethyl)-2H-pyrazol-3-yl]-methyl]-3-(4-hydroxy-3-methoxy-phenyl)-urea]: the “(f) Ki (human being) [nM] Cap: result in words” value (shortened to “(f) Ki (human being) [nM] Cap”) was “AG”.

Take `CC(C)(C)c1cc(CNC(=O)Nc2ccc(CN)c(F)c2)n(-c2cccc(Cl)c2)n1` [Example B40, 1-[4-(Aminomethyl)-3-fluoro-phenyl]-3-[[5-tert-butyl-2-(3-chlorophenyl)-2H-pyrazol-3-yl]-methyl]-urea]: the Ki was 92 nM.

On to `CC(C)c1cccc(-n2nc(C(F)(F)F)cc2CNC(=O)Nc2ccc(CNS(N)(=O)=O)c(F)c2)c1` [Example B80, 1-[3-Fluoro-4-[(sulfamoylamino)-methyl]-phenyl]-3-[[2-(3-isopropyl-phenyl)-5-(trifluoromethyl)-2H-pyrazol-3-yl]-methyl]-urea], for which the Ki turned out to be 2 nM.

As for “4-[[[2-(3-Chlorophenyl)-5-(trifluoromethyl)-2H-pyrazol-3-yl]-methyl-carbamoyl]-methyl]-2-fluoro-N-(4-fluorophenyl)-benzamide [Example E38]”, the inhibition constant (Ki) was found to be 3 nM.

As to `CC(C(=O)NCc1cc(C(F)(F)F)nn1-c1cccc(Cl)c1)c1ccc(CO)c(Cl)c1` (stereo not drawn) [Example A36, 2-[3-Chloro-4-(hydroxymethyl)-phenyl]-N-[[2-(3-chlorophenyl)-5-(trifluoromethyl)-2H-pyrazol-3-yl]-methyl]-propionamide], the Ki stood at 0.3 nM.

As to `CC(C(=O)NCc1cc(C(F)(F)F)nn1-c1cccc(Cl)c1)c1ccc(CNS(C)(=O)=O)c(F)c1` (stereo not drawn) [Example B1, N-[[2-(3-Chlorophenyl)-5-(trifluoromethyl)-2H-pyrazol-3-yl]-methyl]-2-[3-fluoro-4-(methanesulfonamido-methyl)-phenyl]-propionamide], the Ki amounted to 5 nM.

Consider “4-[1-[[2-(3-Chlorophenyl)-5-(trifluoromethyl)-2H-pyrazol-3-yl]-methyl-carbamoyl]-ethyl]-2-fluoro-N-methyl-benzamide [Example E11]”, for which the inhibition constant Ki turned out to be 11 nM.

For the compound “4-[1-[[2-(3-Chlorophenyl)-5-(trifluoromethyl)-2H-pyrazol-3-yl]-methyl-carbamoyl]-ethyl]-2-fluoro-N-[4-(trifluoromethyl)-phenyl]-benzamide [Example E48]”, the Ki was determined as 27 nM.

Regarding `CC(C(=O)NCc1cc(C(C)(C)C)nn1-c1cccc(Cl)c1)c1ccc(C(O)CO)cc1` (stereo not drawn) [Example A147, N-[[5-tert-Butyl-2-(3-chlorophenyl)-2H-pyrazol-3-yl]-methyl]-2-[4-(1,2-dihydroxy-ethyl)-phenyl]-propionamide], the “(f) Ki (human being) [nM] Cap” value is recorded as “AG”.

For `CC(C)(C)c1cc(CNC(=O)Nc2ccc(CNS(C)(=O)=O)c(F)c2)n(-c2ccc(F)c(Cl)c2)n1` [Example B51, 1-[[5-tert-Butyl-2-(3-chloro-4-fluoro-phenyl)-2H-pyrazol-3-yl]-methyl]-3-[3-fluoro-4-(methanesulfonamido-methyl)-phenyl]-urea], the Ki is 15 nM.

On to `CC(C(=O)NCc1cc(C(F)(F)F)nn1-c1ccc(Cl)cc1)c1ccc(CNS(C)(=O)=O)c(F)c1` (stereo not drawn) [Example B18, N-[[2-(4-Chlorophenyl)-5-(trifluoromethyl)-2H-pyrazol-3-yl]-methyl]-2-[3-fluoro-4-(methanesulfonamido-methyl)-phenyl]-propionamide], for which the Ki amounted to 13 nM.

As for `CC(C(=O)NCc1cc(C(F)(F)F)nn1-c1cccc(Cl)c1)c1ccc(CNS(N)(=O)=O)cc1` (stereo not drawn) [Example B102, N-[[2-(3-Chlorophenyl)-5-(trifluoromethyl)-2H-pyrazol-3-yl]-methyl]-2-[4-[(sulfamoylamino)-methyl]-phenyl]-propionamide], the Ki was found to be 1 nM.

Take `CC(C)(C)c1cc(CNC(=O)Nc2ccc(CNS(C)(=O)=O)c(F)c2)n(-c2ccc(F)c(F)c2)n1` [Example B72, 1-[[5-tert-Butyl-2-(3,4-difluoro-phenyl)-2H-pyrazol-3-yl]-methyl]-3-[3-fluoro-4-(methanesulfonamido-methyl)-phenyl]-urea]: the Ki worked out at 13 nM.

With `CC(C)(C)c1cc(CNC(=O)Nc2ccc(CNS(N)(=O)=O)c(F)c2)n(-c2cccc(F)c2)n1` [Example B59, 1-[[5-tert-Butyl-2-(3-fluorophenyl)-2H-pyrazol-3-yl]-methyl]-3-[3-fluoro-4-[(sulfamoylamino)-methyl]-phenyl]-urea], the inhibition constant (Ki) was 16 nM.

With `CC(C(=O)NCc1cc(C(F)(F)F)nn1-c1cccc(C(F)(F)F)c1)c1ccc(CO)c(F)c1` (stereo not drawn) [Example A48, 2-[3-Fluoro-4-(hydroxymethyl)-phenyl]-N-[[5-(trifluoromethyl)-2-[3-(trifluoromethyl)phenyl]-2H-pyrazol-3-yl]-methyl]-propionamide], the “(f) Ki (human being) [nM] Cap” value is “AG”.

Regarding “4-[[[5-tert-Butyl-2-(3-chlorophenyl)-2H-pyrazol-3-yl]-methyl-carbamoyl]-methyl]-N-(4-chlorophenyl)-benzamide [Example E30]”, the Ki turned out to be 3 nM.

Turning to `CC(C)(C)c1cc(CNC(=O)Nc2ccc(N3CC(O)C3)c(F)c2)n(-c2cccc(Cl)c2)n1` [Example C7, 1-[[5-tert-Butyl-2-(3-chlorophenyl)-2H-pyrazol-3-yl]-methyl]-3-[3-fluoro-4-(3-hydroxy-azetidin-1-yl)-phenyl]-urea], the Ki amounted to 15 nM.

Consider “4-[1-[[5-tert-Butyl-2-(3-chlorophenyl)-2H-pyrazol-3-yl]-methyl-carbamoyl]-ethyl]-N-(4-fluorophenyl)-benzamide [Example E42]”, for which the Ki was 1 nM.
